Data as given in the supplement of paper PMC13380429.
± gives the standard deviation of the averaged measurements.

Legend:
Conditions in all cases: 72 h
Caco-2 [1] = assay: cell viability relative to DMSO; higher = less toxic
Calu-3 [2] = assay: as above
HepG2 [3] = assay: as above
U2OS [4] = assay: as above
Vero E6 [5] = assay: as above
Caco-2 [6] = assay: relative viability EC50 (midpoint between 100% and the lowest measured viability); higher = less toxic
Calu-3 [7] = assay: as above
HepG2 [8] = assay: as above
U2OS [9] = assay: as above
Vero E6 [10] = assay: as above
Caco-2 [11] = assay: drug sensitivity score (DSS) for viability; higher = more toxic; extreme values may be limits of the assay
Calu-3 [12] = assay: as above
HepG2 [13] = assay: as above
U2OS [14] = assay: as above
Vero E6 [15] = assay: as above

| SMILES | cell viability (Caco-2 [1]; 1 nM) [%] | cell viability (Caco-2 [1]; 10 nM) [%] | cell viability (Caco-2 [1]; 100 nM) [%] | cell viability (Caco-2 [1]; 1000 nM) [%] | cell viability (Caco-2 [1]; 10000 nM) [%] | cell viability (Calu-3 [2]; 1 nM) [%] | cell viability (Calu-3 [2]; 10 nM) [%] | cell viability (Calu-3 [2]; 100 nM) [%] | cell viability (Calu-3 [2]; 1000 nM) [%] | cell viability (Calu-3 [2]; 10000 nM) [%] | cell viability (HepG2 [3]; 1 nM) [%] | cell viability (HepG2 [3]; 10 nM) [%] | cell viability (HepG2 [3]; 100 nM) [%] | cell viability (HepG2 [3]; 1000 nM) [%] | cell viability (HepG2 [3]; 10000 nM) [%] | cell viability (U2OS [4]; 1 nM) [%] | cell viability (U2OS [4]; 10 nM) [%] | cell viability (U2OS [4]; 100 nM) [%] | cell viability (U2OS [4]; 1000 nM) [%] | cell viability (U2OS [4]; 10000 nM) [%] | cell viability (Vero E6 [5]; 1 nM) [%] | cell viability (Vero E6 [5]; 10 nM) [%] | cell viability (Vero E6 [5]; 100 nM) [%] | cell viability (Vero E6 [5]; 1000 nM) [%] | cell viability (Vero E6 [5]; 10000 nM) [%] | relative viability EC50 (Caco-2 [6]) [µM] | relative viability EC50 (Calu-3 [7]) [µM] | relative viability EC50 (HepG2 [8]) [µM] | relative viability EC50 (U2OS [9]) [µM] | relative viability EC50 (Vero E6 [10]) [µM] | drug sensitivity score (Caco-2 [11]) | drug sensitivity score (Calu-3 [12]) | drug sensitivity score (HepG2 [13]) | drug sensitivity score (U2OS [14]) | drug sensitivity score (Vero E6 [15]) |
| --- | --- | --- | --- | --- | --- | --- | --- | --- | --- | --- | --- | --- | --- | --- | --- | --- | --- | --- | --- | --- | --- | --- | --- | --- | --- | --- | --- | --- | --- | --- | --- | --- | --- | --- | --- |
| CCOC(=O)C1=C[C@]2(CC)CCCN3CCc4c(n1c1ccccc41)[C@@H]32 [vinpocetine] | 92 | 96.7 | 91.7 | 98.4 | 104 | 106 | 95.9 | 94 | 105 | 98.3 | 97.7 | 94 | 99.7 | 89.7 | 108 | 97.6 | 101 | 102 | 101 | 101 | 98.8 | 87.7 | 95.9 | 91.8 | 107 | > 10 | > 10 | > 10 | > 10 | > 10 | 0 | 0 | 0 | 0 | 0 |
| O=C(O)c1cnn(-c2nc3cc(OC(F)(F)F)c(Cl)cc3[nH]2)c1 | 104 | 92.7 | 97.6 | 103 | 93.6 | 89.5 | 106 | 105 | 102 | 98.5 | 93.8 | 96.2 | 91.9 | 104 | 88.1 | 101 | 96 | 90.3 | 88.8 | 93.3 | 97.2 | 104 | 100 | 103 | 93.7 | > 10 | > 10 | > 10 | > 10 | > 10 | 0 | 0 | 0 | 0.5 | 0 |
| C#Cc1cccc2c1c(C(=O)c1ccc(Cn3c(C)nc4cnccc43)c(F)c1)cn2C(=O)N(C)C [ABT-491] | 101 | 86.1 | 91.1 | 91.3 | 93.3 | 97.2 | 102 | 100 | 106 | 106 | 102 | 110 | 95.6 | 100 | 91.4 | 99.7 | 98.3 | 96.6 | 98.5 | 94.7 | 103 | 97.1 | 97.1 | 98.4 | 95.5 | > 10 | > 10 | > 10 | > 10 | > 10 | 0 | 0 | 0 | 0 | 0 |
| CC(=O)OCC1=C(C(=O)O)N2C(=O)[C@@H](NC(=O)CSc3ccncc3)[C@H]2SC1 [cephapirin] | 93.9 | 109 | 94.8 | 97.6 | 96.1 | 98.9 | 92.3 | 90.9 | 101 | 97.7 | 104 | 91.1 | 102 | 93.3 | 103 | 96.6 | 99.6 | 93.8 | 94.6 | 104 | 95.6 | 98 | 95.6 | 97.1 | 102 | > 10 | > 10 | > 10 | > 10 | > 10 | 0 | 0 | 0 | 0 | 0 |
| C=CCN1CC[C@]23CCCC[C@H]2[C@H]1Cc1ccc(O)cc13 [levallorphan] | 94.6 | 105 | 108 | 95.6 | 104 | 108 | 97 | 99.8 | 101 | 104 | 102 | 105 | 94.2 | 98.9 | 88.8 | 98.6 | 93.8 | 97.3 | 102 | 103 | 101 | 103 | 99.3 | 105 | 101 | > 10 | > 10 | > 10 | > 10 | > 10 | 0 | 0 | 0 | 0 | 0 |
| C=C1CC[C@H](O)C/C1=C/C=C1\CCC[C@]2(C)[C@@H]([C@H](C)CCCC(C)(C)O)CC[C@@H]12 [calcifediol] | 107 | 90.2 | 107 | 92.3 | 91.8 | 98.2 | 91.4 | 78.8 | 103 | 107 | 92.6 | 103 | 97.1 | 103 | 101 | 106 | 97.5 | 105 | 98.1 | 95 | 98.9 | 95 | 98.1 | 97.3 | 97 | > 10 | > 10 | > 10 | > 10 | > 10 | 0 | 0 | 0 | 0 | 0 |
| N=C(N)Nc1ccc2[nH]c3c(c2c1)C[C@@]1(O)[C@H]2Cc4ccc(O)c5c4[C@@]1(CCN2CC1CC1)[C@H]3O5 [GNTI] | 99.7 | 95.2 | 99.4 | 95.6 | 102 | 93.8 | 92.7 | 98.3 | 102 | 106 | 99 | 122 | 111 | 98.2 | 88.1 | 99.7 | 93.5 | 101 | 101 | 104 | 101 | 97.4 | 104 | 104 | 101 | > 10 | > 10 | > 10 | > 10 | > 10 | 0 | 0 | 0.1 | 0 | 0 |
| C[C@]1(COc2ccc(N3CCC(Oc4ccc(OC(F)(F)F)cc4)CC3)cc2)Cn2cc([N+](=O)[O-])nc2O1 [delamanid] | 103 | 96.9 | 103 | 90.5 | 94.3 | 93 | 98 | 103 | 91.9 | 102 | 96.5 | 97.8 | 92.6 | 99.5 | 104 | 105 | 98.2 | 103 | 98.3 | 102 | 104 | 102 | 101 | 102 | 99.8 | > 10 | > 10 | > 10 | > 10 | > 10 | 0 | 0 | 0 | 0 | 0 |
| NCC(CC(=O)O)c1ccc(Cl)cc1 (stereo not given) [baclofen] | 98.6 ± 7.2 | 99.5 ± 3.1 | 95 ± 7.8 | 97.5 ± 3.8 | 100 ± 5 | 98.9 ± 7.8 | 104 ± 5.4 | 98.6 ± 2 | 94.8 ± 4.7 | 104 ± 4.7 | 101 ± 2.9 | 104 ± 9.8 | 106.2 ± 0.99 | 102 ± 7.6 | 99.8 ± 1.3 | 96.8 ± 1.1 | 101 ± 2.5 | 95.5 ± 2.3 | 101 ± 5.4 | 98.8 ± 8 | 97.75 ± 0.071 | 96.8 ± 1.7 | 99.7 ± 3.2 | 96.8 ± 3.8 | 104 ± 6.9 | > 10 | > 10 | > 10 | > 10 | > 10 | 0 | 0 | 0 | 0 | 0 |
| COCCN1CCN(Cc2ccc(-c3n[nH]c4c3C(=O)c3c(NC(=O)NN5CCOCC5)cccc3-4)cc2)CC1 | 97.9 | 102 | 91.1 | 49 | 55 | 105 | 109 | 86.5 | 39 | 55.8 | 107 | 99.8 | 51 | 15.4 | 11.3 | 102 | 107 | 94.5 | 9.8 | 19 | 97.8 | 102 | 98.2 | 13.1 | 12.5 | 0.186 | 0.165 | 0.0894 | 0.269 | 0.306 | 10.8 | 13.4 | 21.9 | 17.1 | 16 |
| COc1ccc(CN2CCN(C(c3ccc(F)cc3)c3ccc(F)cc3)CC2)c(OC)c1OC [lomerizine] | 96.9 | 104 | 87.9 | 98.8 | 82.7 | 88.9 | 98.3 | 94 | 139 | 96 | 110 | 102 | 102 | 93 | 106 | 89.7 | 99.3 | 90.3 | 95.1 | 99.1 | 92.7 | 96.5 | 91.7 | 93.7 | 96.7 | > 10 | > 10 | > 10 | > 10 | > 10 | 0.3 | 0 | 0 | 0 | 0 |
| CNC(=O)c1cccc2cc(Oc3ccnc4cc(OCC5(N)CC5)c(OC)cc34)ccc12 [lucitanib] | 93.6 | 98.1 | 93.2 | 97.6 | 100 | 98.8 | 93 | 101 | 98.9 | 92.1 | 95.7 | 108 | 106 | 104 | 84 | 99.1 | 94.4 | 93.6 | 99 | 91.5 | 97.2 | 100 | 98.8 | 86.1 | 86 | > 10 | > 10 | > 10 | > 10 | > 10 | 0 | 0 | 0.2 | 0 | 1.2 |
| Oc1ccc(Cl)c2cccnc12 [cloxyquin] | 96.1 | 98.1 | 104 | 96.9 | 95 | 87.9 | 100 | 96 | 106 | 105 | 102 | 98.9 | 116 | 93.4 | 88.2 | 94.4 | 99.3 | 99.4 | 99.8 | 97.4 | 99.7 | 105 | 99.9 | 101 | 97.7 | > 10 | > 10 | > 10 | > 10 | > 10 | 0 | 0 | 0.3 | 0 | 0 |
| OC[C@H]1NC[C@@H](O)[C@@H](O)[C@@H]1O [1-deoxymannojirimycin] | 95.3 | 96.8 | 98.2 | 97 | 104 | 106 | 96.8 | 97 | 95.4 | 90.8 | 109 | 96.2 | 94.5 | 93.1 | 97.7 | 96.8 | 102 | 95.8 | 100 | 108 | 99.1 | 93 | 98.2 | 96.8 | 107 | > 10 | > 10 | > 10 | > 10 | > 10 | 0 | 0 | 0 | 0 | 0 |
